Results taken from patent publication US20230270763A1, “METHOD OF TREATING C[…] CANNABINOIDS AND DERIVATIVES” (PASCAL BIOSCIENCES INC., priority 2020, published 2023).
pEC50, pIC50: −log10 of the molar value. Like-named read-outs stand apart in the source and are kept apart here.

Columns and labels:
[1] = system: SARS-CoV-2 Toronto strain; assay: cytopathic effect screening assay, SARS-CoV-2 Toronto strain in Vero E6 cells; format: cell-based; details: Severe acute respiratory syndrome coronavirus 2, Vero C1008; Vero E6 cells mixed with virus; CBD 20 nM to 10 μM; cell viability after 72 hours; FIG. 1; read-out: EC50, inhibition of cell death of virally-infected cells
[2] = system: Vero E6 cells; details: Vero E6 cultures not exposed to virus; 20 nM to 10 μM; 72 hours
[3] = system: SARS-CoV-2; details: reported by Nguyen et al., March 2021; cited from earlier work
[4] = system: SARS-CoV-2 Everett strain; assay: protection of Calu-3 cells from SARS-CoV-2 Everett strain-induced cytotoxicity (CellTiter Glo 2.0); details: read-out: IC50, protection of Calu-3 cells from SARS2-induced cytotoxicity
[5] = Severe acute respiratory syndrome coronavirus 2, Calu-3, 96 h

Row | Compound | pEC50 [1] | cytotoxicity over the concentration range tested [2] | effect on SARS-CoV-2 replication [3] | pIC50 [4, 5] | pIC50 ([4]; Calu-3, 96 hours, MOI 0.5 to 2.0, three-fold dilutions from 10 μM)
1 | C=C(C)[C@@H]1CCC(C)=C[C@H]1c1c(O)cc(CCCCC)cc1O [CBD, (−)-Cannabidiol] | 5.07 | No cytotoxicity | inhibits SARS-CoV-2 replication | 6.92 | –
2 | C=C(C)[C@@H]1CCC(C)=C[C@H]1c1c(O)cc(CCC)cc1O [cannabidivarin, (−)-Cannabidivarin] | – | – | – | 7.37 | –
3 | CCCCCc1cc(O)c(C/C=C(\C)CCC=C(C)C)c(O)c1 [cannabigerol, Cannabigerol] | – | – | – | – | 6.92
